Source: ChEMBL document CHEMBL1134043, “Allosteric inhibition of fructose-1,6-bisphosphatase by anilinoquinazolines” (Bioorg Med Chem Lett, 2001)

How the values were obtained:
Oryctolagus cuniculus = organism: Oryctolagus cuniculus; experiment: Compound was evaluated for its concentration required to inhibit the rabbit liver F16BPase; type: functional
[1] = molecular target: T1, Fructose-1,6-bisphosphatase 1 (Rattus norvegicus, UniProt P19112); experiment: Compound was evaluated for its concentration required to inhibit the rat liver F16BPase
T1 sequence (P19112 whole entry): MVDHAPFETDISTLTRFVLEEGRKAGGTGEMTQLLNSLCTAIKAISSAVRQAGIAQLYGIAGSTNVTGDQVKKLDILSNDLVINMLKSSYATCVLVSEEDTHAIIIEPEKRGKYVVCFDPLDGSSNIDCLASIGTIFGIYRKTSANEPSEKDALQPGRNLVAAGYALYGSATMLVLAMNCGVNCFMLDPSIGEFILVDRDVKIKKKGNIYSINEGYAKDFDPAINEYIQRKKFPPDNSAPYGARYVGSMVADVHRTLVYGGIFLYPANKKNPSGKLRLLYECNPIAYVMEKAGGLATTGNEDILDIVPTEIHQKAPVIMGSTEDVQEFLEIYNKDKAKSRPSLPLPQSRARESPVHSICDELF

[2] = molecular target: T2, Fructose-1,6-bisphosphatase 1 (Sus scrofa, UniProt P00636); experiment: Compound was evaluated for its concentration required to inhibit the porcine kidney F16BPase
T2 sequence (P00636 whole entry): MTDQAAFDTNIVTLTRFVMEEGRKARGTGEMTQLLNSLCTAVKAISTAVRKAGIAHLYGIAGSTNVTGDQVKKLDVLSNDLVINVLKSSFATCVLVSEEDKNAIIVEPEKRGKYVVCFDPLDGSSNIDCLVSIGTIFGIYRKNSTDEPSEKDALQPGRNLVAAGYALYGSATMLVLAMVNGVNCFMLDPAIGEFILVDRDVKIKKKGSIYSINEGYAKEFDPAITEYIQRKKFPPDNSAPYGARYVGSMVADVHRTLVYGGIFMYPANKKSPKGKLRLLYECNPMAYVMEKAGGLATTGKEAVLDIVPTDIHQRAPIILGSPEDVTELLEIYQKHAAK

[3] = molecular target: T3, Fructose-1,6-bisphosphatase 1 (Homo sapiens, UniProt P09467); experiment: Concentration required to inhibit the human liver recombinant fructose-1,6-bisphosphatase.
T3 sequence (P09467 whole entry): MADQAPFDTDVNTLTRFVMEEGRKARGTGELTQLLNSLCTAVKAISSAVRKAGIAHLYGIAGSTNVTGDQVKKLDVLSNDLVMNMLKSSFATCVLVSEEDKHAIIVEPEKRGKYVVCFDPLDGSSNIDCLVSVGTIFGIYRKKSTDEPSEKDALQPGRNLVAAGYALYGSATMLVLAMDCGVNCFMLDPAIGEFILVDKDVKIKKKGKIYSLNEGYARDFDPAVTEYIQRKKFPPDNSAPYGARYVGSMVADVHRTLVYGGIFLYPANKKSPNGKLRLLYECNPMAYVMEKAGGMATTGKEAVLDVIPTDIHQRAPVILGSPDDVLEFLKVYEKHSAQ

## COc1cc2ncnc(Nc3cccc(Br)c3)c2cc1OC
Oryctolagus cuniculus
  IC50: > 10 µM
[1]
  IC50: > 10 µM
[2]
  IC50: > 10 µM

## CCOc1cc2ncnc(Nc3cccc(F)c3)c2cc1OCC
[3]
  IC50: 9.2 µM

## COc1cc2nc(C)nc(Nc3cccc(Br)c3)c2cc1OC
[3]
  IC50: 4.5 µM

## COc1cc2ncnc(Nc3ccc(F)c(Cl)c3)c2cc1OC
Oryctolagus cuniculus
  IC50: > 10 µM
[1]
  IC50: > 10 µM
[3]
  IC50: 0.29 µM
[2]
  IC50: 0.34 µM

## CCOc1cc2ncnc(Nc3ccc(C)c(Cl)c3)c2cc1OCC
[3]
  IC50: > 10 µM

## O=C(O)c1ccc2c(Nc3cccc(Br)c3)ncnc2c1
[3]
  IC50: > 10 µM

## CC(C)Oc1ccc2ncnc(Nc3cccc(Br)c3)c2c1
[3]
  IC50: > 10 µM

## C#Cc1cccc(Nc2ncnc3cc(OC)c(OC)cc23)c1
Oryctolagus cuniculus
  IC50: > 10 µM
[1]
  IC50: > 10 µM
[3]
  IC50: 0.9 µM
[2]
  IC50: 1.6 µM

## CCOc1cc2nc(CN(CC)CC)nc(Nc3cccc(Br)c3)c2cc1OCC
[3]
  IC50: > 10 µM

## CCOc1cc2nc(CN3CCOCC3)nc(Nc3cccc(Br)c3)c2cc1OCC
[3]
  IC50: > 10 µM

## CCOc1cc2ncnc(Nc3cccc(Br)c3)c2cc1OCC
Oryctolagus cuniculus
  IC50: > 10 µM
[1]
  IC50: > 10 µM
[3]
  IC50: 1.7 µM
[2]
  IC50: > 10 µM

## CCN(CC)c1nc(Nc2cccc(Br)c2)c2cc(OC)c(OC)cc2n1
[3]
  IC50: > 10 µM

## CCOc1cc2nc(-c3ccccc3)nc(Nc3cccc(Br)c3)c2cc1OCC
[3]
  IC50: > 10 µM

## CCOc1cc2nc(Cc3ccccc3)nc(Nc3cccc(Br)c3)c2cc1OCC
[3]
  IC50: > 10 µM

## C#Cc1cccc(Nc2ncnc3cc(OCC)c(OCC)cc23)c1
[3]
  IC50: 2.4 µM

## CCCCOc1ccc2ncnc(Nc3cccc(Br)c3)c2c1
[3]
  IC50: > 10 µM

## CCOc1cc2nc(CS(C)(=O)=O)nc(Nc3cccc(Br)c3)c2cc1OCC
[3]
  IC50: > 10 µM

## Nc1cc2c(Nc3cccc(Br)c3)ncnc2cc1Cl
[3]
  IC50: 11.9 µM

## CCOc1cc2ncnc(Nc3ccc(Cl)c(Cl)c3)c2cc1OCC
[3]
  IC50: > 10 µM

## CCOc1cc2ncnc(Nc3ccc(F)c(Cl)c3)c2cc1OCC
Oryctolagus cuniculus
  IC50: > 10 µM
[1]
  IC50: > 10 µM
[3]
  IC50: 0.53 µM
[2]
  IC50: 3.1 µM

## Brc1cccc(Nc2ncnc3cc4ccccc4cc23)c1
[3]
  IC50: 7.5 µM

## CCOc1cc2nc(CC(C)C)nc(Nc3cccc(Br)c3)c2cc1OCC
[3]
  IC50: > 10 µM

## COCCOc1cc2c(Nc3cccc(Br)c3)ncnc2cc1OC
[3]
  IC50: 5.5 µM

## COCCOc1cc2ncnc(Nc3cccc(Br)c3)c2cc1OCCOC
[3]
  IC50: > 10 µM

## CCOc1cc2ncnc(Nc3cccc(Cl)c3)c2cc1OCC
Oryctolagus cuniculus
  IC50: > 10 µM
[1]
  IC50: > 10 µM
[3]
  IC50: 1.6 µM
[2]
  IC50: 3.9 µM

## COc1cc2ncnc(Nc3cccc(Br)c3)c2cc1[N+](=O)[O-]
[3]
  IC50: > 10 µM

## CCOc1cc2ncnc(Nc3ccccc3)c2cc1OCC
[3]
  IC50: > 10 µM

## C#Cc1cc(Nc2ncnc3cc(OC)c(OC)cc23)ccc1F
Oryctolagus cuniculus
  IC50: > 10 µM
[1]
  IC50: > 10 µM
[3]
  IC50: 0.25 µM
[2]
  IC50: 0.77 µM

## COCCOc1ccc2ncnc(Nc3cccc(Br)c3)c2c1
[3]
  IC50: 2.9 µM

## CCOc1cc2ncnc(Nc3cccc(I)c3)c2cc1OCC
[3]
  IC50: 2.1 µM

## Brc1cccc(Nc2ncnc3cc4nc[nH]c4cc23)c1
[3]
  IC50: 4 µM

## O=[N+]([O-])c1cc2c(Nc3cccc(Br)c3)ncnc2cc1Cl
[3]
  IC50: > 10 µM

## CCOc1cc2ncnc(Nc3cccc(Br)c3)c2cc1[N+](=O)[O-]
[3]
  IC50: 3.6 µM

## CCOc1cc2nc(CCl)nc(Nc3cccc(Br)c3)c2cc1OCC
[3]
  IC50: > 10 µM

## CCOc1cc2ncnc(Nc3cccc(C#N)c3)c2cc1OCC
[3]
  IC50: > 10 µM

## COc1cc2ncnc(Nc3cccc(Cl)c3)c2cc1OC [TYRPHOSTIN AG-1478]
Oryctolagus cuniculus
  IC50: > 10 µM
[1]
  IC50: > 10 µM
[3]
  IC50: 1.3 µM
[2]
  IC50: > 10 µM
